Earlier results as cited in paper PMC6428196 (Psychopharmacology, 2018).

What was measured:
[1] = human, in vivo, sc
[2] = in vivo
baboons = details: ref Holtyn et al. 2017

Structure (SMILES) | Bioavailability [1] [%] | Brain penetration after systemic administration [2] | Drinking (baboons)
CCCCCCCCCCCCCCCC(=O)N[C@@H](CCC(=O)NCCCC[C@H](NC(=O)[C@H](C)NC(=O)[C@H](C)NC(=O)[C@H](CCC(N)=O)NC(=O)CNC(=O)[C@H](CCC(=O)O)NC(=O)[C@H](CC(C)C)NC(=O)[C@H](Cc1ccc(O)cc1)NC(=O)[C@H](CO)NC(=O)[C@H](CO)NC(=O)[C@@H](NC(=O)[C@H](CC(=O)O)NC(=O)[C@H](CO)NC(=O)[C@@H](NC(=O)[C@H](Cc1ccccc1)NC(=O)[C@@H](NC(=O)CNC(=O)[C@H](CCC(=O)O)NC(=O)[C@H](C)NC(=O)[C@@H](N)Cc1cnc[nH]1)[C@@H](C)O)[C@@H](C)O)C(C)C)C(=O)N[C@@H](CCC(=O)O)C(=O)N[C@@H](Cc1ccccc1)C(=O)N[C@H](C(=O)N[C@@H](C)C(=O)N[C@@H](Cc1c[nH]c2ccccc12)C(=O)N[C@@H](CC(C)C)C(=O)N[C@H](C(=O)N[C@@H](CCCNC(=N)N)C(=O)NCC(=O)N[C@@H](CCCNC(=N)N)C(=O)NCC(=O)O)C(C)C)[C@@H](C)CC)C(=O)O [liraglutide] | 55 | penetrate the brain | –
O=C1CC[C@@]2(O)[C@H]3Cc4ccc(O)c5c4[C@@]2(CCN3CC2CC2)[C@H]1O5 [naltrexone] | – | – | reduced drinking to a degree comparable to our liraglutide effect
